Results as given in patent US20040028656A1, “Survival of neurons” (University of South Florida, a non-profit institution, priority 1998, published 2004).

System: hNT neurons
Test: Soma size and neurite outgrowth of TH+ hNT cells (image analysis)
Type: cell-based, human
Settings: for soma sizes versus control: 5DIV NaCl or KCl-treated cultures; for neurite outgrowth versus control: NaCl and KCl-treated 5DIV
Procedure: The same series of slides immunostained for TH were employed to measure the soma size (μm^2) and neurite outgrowth (μm) of appropriately 50 TH+ cells per representative culture experiment using a computerized image analysis program (Image-Pro Plus, Media Cybernetics, Inc., Silver Springs, Md.) at 20× objective. The results in the morphological assessment study are reported as mean ±SEM and were analyzed using Student's t-test.

SMILES	soma sizes versus control	neurite outgrowth versus control
[Cl-].[K+] [KCl]	not significantly different from control	did not significantly differ from control values
[Cl-].[Na+] [NaCl]	not significantly different from control	did not significantly differ from control values
